This is an account of results in patent US20260209286A1, “SEA CUCUMBER-DERIVED HOLOTOCIN PEPTIDE AND USES THEREOF” (NATIONAL MARINE BIODIVERSITY INSTITUTE OF KOREA, priority 2022, published 2026).

The test system of series [1] is epidermal keratinocytes HaCaT. Kind of series: CCK-8 cytotoxicity assay in HaCaT cells. The note with it: 10, 1 and 0.1 μM, 24 and 72 hours.
Series [2] has as its system kidney cell line 293T. The series is described as follows: CCK-8 cytotoxicity assay in 293T cells. The settings on record: 10, 1 and 0.1 μM, 24 and 72 hours.
The next series deals with Sox2. Kind of series: RT-PCR of regeneration-related gene Sox2 in HaCaT skin cells. It counts as cell-based. The settings on record: 1 μM, 24 hours.
Another series deals with Oct4. Kind of series: RT-PCR of regeneration-related gene Oct4 in HaCaT skin cells. It counts as cell-based. The settings on record: 1 μM, 24 hours.
In a further series the test system is rat hypothalamic neurons. The settings on record: cited from earlier work.
The subject of series [3] is epidermal keratinocytes HaCaT.
For series [4], the system named is kidney cell line 293T.
Series [5] concerns kidney cell line 293T. Kind of series: Size of stem cell spheroids formed in 293T cells. Format: cell-based. The settings on record: 10, 1 and 0.1 μM, cultured 10 days. On the procedure:
(§1) For the formation of spheroids, the cells prepared in Preparation Example 2 were cultured in Aggrewell 800 plates pretreated with an anti-Adherence rinsing solution, using a DMEM-F12 medium containing a stem cell-permissive medium supplemented with 20 ng/ml EGF, 20 ng/ml basic fibroblast growth factor (bFGf), and B27 Serum-free Supplement (50×; Invitrogen).
(§2) After the culture period, the spheroids were observed under a microscope, and approximately 25 spheroids were measured.
(§3) Specifically, FIGS. 5 to 8 show the results of adding the peptides prepared in Preparation Example 1 to the renal cell line 293T, and FIGS. 9 to 12 show the results of adding the same peptides to the epidermal keratinocytes HaCaT.

The subject of series [6] is epidermal keratinocytes HaCaT. Kind of series: Size of stem cell spheroids formed in HaCaT cells. Format: cell-based. The settings on record: 10, 1 and 0.1 μM, cultured 10 days. As to the method: as §1, §2, §3

Read-outs that look alike come from different tables or passages of the source. Where a SMILES comes first, the peptide text is derived from it. Bridges are numbered along the chain shown (N, C = ends). Where no end group is shown, it is not given here.

Consider `CC[C@H](C)[C@@H]1NC(=O)[C@H](Cc2ccccc2)NC(=O)[C@@H](N)CSSC[C@@H](C(=O)N2CCC[C@H]2C(=O)N[C@@H](CC(C)C)C(=O)NCC(N)=O)NC(=O)[C@H](CC(N)=O)NC(=O)[C@H]([C@@H](C)O)NC1=O` [Holotocin(HLT), Holotocin] (H-CFITNCPLG-NH2; disulfide 1-6), for which the “cytotoxicity / cell viability” value (in series [1]; in the series with kidney cell line 293T [2]) was “no changes in cytotoxicity or cell proliferation” throughout.

As for `CC[C@H](C)[C@@H]1NC(=O)[C@H](Cc2ccc(O)cc2)NC(=O)[C@@H](N)CSSC[C@@H](C(=O)N2CCC[C@H]2C(=O)N[C@@H](CC(C)C)C(=O)NCC(N)=O)NC(=O)[C@H](CC(N)=O)NC(=O)[C@H](CCC(N)=O)NC1=O` [Oxytocin(OXT), Oxytocin], the “expression of stemness-related gene Sox2” value in the series on Sox2 (HaCaT, RT-PCR) is on record as “induces the expression”. The “expression of stemness-related gene Oct4” value with Oct4 (HaCaT, RT-PCR) is on record as “induces the expression”. Moreover, the “cytotoxicity / cell viability” value (in [1]; in the series with kidney cell line 293T [2]) was “no changes in cytotoxicity or cell proliferation” throughout. The size of spheroids entry in the series with rat hypothalamic neurons (rat hypothalamic neurons, Salehi et al. 2021) is “increase the size of spheroids”.

As to `NC(=O)CC[C@@H]1NC(=O)[C@H](Cc2ccccc2)NC(=O)[C@H](Cc2ccc(O)cc2)NC(=O)[C@@H](N)CSSC[C@@H](C(=O)N2CCC[C@H]2C(=O)N[C@@H](CCCN=C(N)N)C(=O)NCC(N)=O)NC(=O)[C@H](CC(N)=O)NC1=O` [Vasopressin(AVP), Vasopressin], the “cytotoxicity / cell viability” value (in series [3]; in the series on kidney cell line 293T [4]) was “no changes in cytotoxicity or cell proliferation” each time. The “expression of stemness-related gene Sox2” value in the series with Sox2 was “induces the expression”. The “expression of stemness-related gene Oct4” value in the series with Oct4 was “induces the expression”. The size of spheroids result in the series with rat hypothalamic neurons is listed as “increase the size of spheroids”.

For the compound “Octopressin (CFWTNCPVG-NH2; ends and bridges not checked; listed as Octopus vulgaris) [Octopressin(OTP)]”, the “change in the size of the stem cell spheroids (in words)” value (with kidney cell line 293T [5]; in series [6]) was “little or no change in the size” throughout. Also, the “cytotoxicity / cell viability” value (in series [1]; in the series on kidney cell line 293T [2]) was “no changes in cytotoxicity or cell proliferation” each time.
